Laboratory results published in patent publication US20240252437A1, “Methods For and Products From Encapsulation of Drugs in Nanoparticles in a Microgravity Environment” (Aphios Corporation, priority 2021, published 2024).

Legend:
α-secretase = assay: HEK-293e cell model for APP processing: sAPP-α release by alkaline phosphatase absorbance at 620 nm (Earth); type: cell-based, human; details: for release of sAPP-α (increase in absorbance at 620 nm): HEK-293e cells stimulated for 24 h at 10^−8M, n=3
Description: The HEK-293e cell line was optimized for studying α-secretase in vitro.
HEK-293e cells are grown to confluency in T75 dishes in DMEM (Dulbecco's Modified Eagle Medium) and 10% FCS (Fetal Calf Serum) with 2 mM L-glutamine and pen-strepamphotericin. Supplements are needed to maintain plasmid expression: (1) Hygromycin stock solution=100× solution=4 mg/mL, final concentration=40 μg/mL (50 mg/12.5 mL makes 4 mg/mL); (2) Puromycin stock solution=100× solution=30 μg/mL stock, final concentration=0.3 μg/mL. Wait for 24-48 hours. All studies used phenol Red Free DMEM medium with 2% FCS. This must be heated to 65° C. for 30 minutes to inactivate endogenous alkaline phosphatase and cooled prior to making up test solutions.
For test solutions, remove 10% FCS growth medium and replace with 1 mL phenol red free DMEM medium+2% FCS per tube (various drug concentrations and control), and freeze cells in cryotubes. Thaw cryotubes and then: (1) Incubate cells at 37° C. for different time points; (2) Centrifuge tube at 1×g for 5 minutes and refreeze tubes to isolate culture supernatants; (3) Thaw tubes and transfer supernatants to new tube: (4) Make up substrate—Phos Blue (KPL Cat #50-88-00) according to manufacturer's instructions; (5) Transfer 100 µL of each sample and add 100 μL of substrate to 96 well plates; (6) Read immediately—record absorbance at 620 nm; and (7) Reacts quickly so record absorbance every 15 minutes for 60 minutes.
After freezing Bryosomes™, HEK-293e cells and cell culture media at −80 °C and thawing after 1, 3, 6 and 16 hours, the samples were analyzed for α-secretase production (FIG. 3). […] Thus, the concentration of 10^−8 M Bryosomes™ after mixing was targeted for the Space mission.

PKC-ε = biological target: T1, PKC-ε (Homo sapiens, UniProt Q02156); details: in vitro studies (Yi et al., 2012); cited from earlier work
T1 sequence (Q02156 1-737): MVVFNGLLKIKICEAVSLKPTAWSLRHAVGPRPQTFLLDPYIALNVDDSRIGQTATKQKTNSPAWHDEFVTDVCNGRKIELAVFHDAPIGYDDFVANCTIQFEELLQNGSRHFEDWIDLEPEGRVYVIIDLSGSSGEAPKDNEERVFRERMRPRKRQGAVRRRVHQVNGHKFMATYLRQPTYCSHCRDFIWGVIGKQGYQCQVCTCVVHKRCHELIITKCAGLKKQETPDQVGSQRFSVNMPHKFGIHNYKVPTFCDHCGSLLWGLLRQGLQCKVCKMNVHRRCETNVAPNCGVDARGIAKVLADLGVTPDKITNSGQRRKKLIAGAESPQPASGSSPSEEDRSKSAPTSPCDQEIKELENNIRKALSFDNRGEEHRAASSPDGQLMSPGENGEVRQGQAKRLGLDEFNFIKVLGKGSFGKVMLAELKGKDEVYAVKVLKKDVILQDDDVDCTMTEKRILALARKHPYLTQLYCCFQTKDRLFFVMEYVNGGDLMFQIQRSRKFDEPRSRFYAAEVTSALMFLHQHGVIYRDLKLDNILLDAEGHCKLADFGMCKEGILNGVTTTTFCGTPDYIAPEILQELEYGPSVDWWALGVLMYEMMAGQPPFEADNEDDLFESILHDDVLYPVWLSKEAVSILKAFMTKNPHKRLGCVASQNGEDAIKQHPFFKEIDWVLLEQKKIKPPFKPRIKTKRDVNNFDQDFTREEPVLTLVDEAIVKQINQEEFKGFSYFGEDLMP

AD-transgenic mice = details: intranasally-active and orally active (Schrott et al., 2015); cited from earlier work

CCC/C=C/C=C/C(=O)O[C@H]1/C(=C/C(=O)OC)C[C@H]2C[C@H]([C@@H](C)O)OC(=O)C[C@H](O)C[C@@H]3C[C@H](OC(C)=O)C(C)(C)[C@](O)(C[C@@H]4C/C(=C/C(=O)OC)C[C@H](/C=C/C(C)(C)[C@]1(O)O2)O4)O3 [Bryostatin-1]
release of sAPP-α (increase in absorbance at 620 nm) (α-secretase): significantly increased
release of sAPP-α (increase in absorbance at 620 nm) (α-secretase; listed as Bryostatin-I): strongly induces
release of sAPP-α (α-secretase; HEK-293e cells, concentrations lower than 10^−8M): do not affect release
activation of PKC-ε isoform (PKC-ε): activate
cognitive performance (AD-transgenic mice): rapidly restores cognitive performance
